Test results as given in patent US4311837A, “Certain heterocyclic thiomethyl derivatives of 7-(dihalogenated phenylthioacetamido)cephalosporanic acids useful in the treatment of infections caused by _Streptococcus faecalis” (Eli Lilly and Company, priority 1980, dated 1982).

test system: Streptococcus faecalis; experiment: In vitro antibacterial activity against eleven strains of Streptococcus faecalis (agar dilution method; tube dilution per footnote); assay type: cell-based; details: Enterococcus faecalis, geometric mean against eleven strains of Streptococcus faecalis
Description: […] faecalis is classified as a species of Group D β-hemolytic streptococci, also known as enterococci. Infections caused by Group D β-hemolytic streptococci, in particular […] faecalis, are generally known to be resistant to cephalosporin antibiotics. The infections caused by Group D streptococci commonly involve the endocardium (endocarditis), the urinary tract, the intestines, the biliary tract, postoperative wounds, and interabdominal abscesses. Endocarditis is clinically a very important disease and is frequently difficult to treat by antibiotic therapy. The disease is commonly treated by infusion of penicillin G in combination with streptomycin or vancomycin. […] The results are shown in Table 1 where the activity is measured by the MIC values, defined as the concentration of the compound capable of inhibiting the growth of the test organism. |In Vitro Antibacterial Activity Against Eleven |Strains of Streptococcus faecalis | *Geometric mean MIC as determined by the tube dilution method against | eleven strains of Streptococcus faecalis.

SMILES	MIC [µg/mL]
Cn1c(SCC2=C(C(=O)O)N3C(=O)C(NC(=O)CSc4cc(Cl)ccc4Cl)C3SC2)nnc(O)c1=O (stereo not drawn)	3.76
Cn1nnnc1SCC1=C(C(=O)O)N2C(=O)C(NC(=O)CSc3cc(Cl)ccc3Cl)C2SC1 (stereo not drawn)	3.11
Cc1nnc(SCC2=C(C(=O)O)N3C(=O)C(NC(=O)CSc4ccc(Cl)c(Cl)c4)C3SC2)s1 (stereo not drawn)	1.76
O=C(CSc1cc(Cl)ccc1Cl)NC1C(=O)N2C(C(=O)O)=C(CSc3ncco3)CSC12 (stereo not drawn)	1.88
CC(=O)OCC1=C(C(=O)O)N2C(=O)C(NC(=O)CSc3cc(Cl)ccc3Cl)C2SC1 (stereo not drawn)	2
O=C(CSc1cc(Cl)ccc1Cl)NC1C(=O)N2C(C(=O)O)=C(CO)CS[C@H]12 (stereo partly drawn) [OH, 7-[2-[(2,5-Dichlorophenyl)thio]acetamido]-3-hydroxymethyl-3-cephem-4-carboxylic acid]	3.11
O=C(CSc1cc(Cl)ccc1Cl)NC1C(=O)N2C(C(=O)O)=C(CSc3cnsn3)CSC12 (stereo not drawn)	1.37
Cn1nnnc1SCC1=C(C(=O)O)N2C(=O)C(NC(=O)CSc3ccc(Cl)c(Cl)c3)C2SC1 (stereo not drawn)	4.83

The remaining lines, values ahead:

MIC [µg/mL]	SMILES
2.13	Cc1nnc(SCC2=C(C(=O)O)N3C(=O)C(NC(=O)CSc4cc(Cl)ccc4Cl)C3SC2)o1 (stereo not drawn)
4.26	Nc1nnc(SCC2=C(C(=O)O)N3C(=O)C(NC(=O)CSc4cc(Cl)ccc4Cl)C3SC2)s1 (stereo not drawn)
1.88	Cc1nsc(SCC2=C(C(=O)O)N3C(=O)C(NC(=O)CSc4cc(Cl)ccc4Cl)C3SC2)n1 (stereo not drawn)
1.29	Cc1nnc(SCC2=C(C(=O)O)N3C(=O)C(NC(=O)CSc4cc(Cl)ccc4Cl)C3SC2)s1 (stereo not drawn)
